pIC50: −log10 of the molar value.
Assays:
Type in all cases: biochemical
recombinant mouse Acot13 [1] = target: T1, recombinant mouse Acot13 (Mus musculus, UniProt Q9CQR4); assay: thioesterase activity assay; details: read-out: % inhibition at 10 mM
T1 sequence (Q9CQR4 1-140): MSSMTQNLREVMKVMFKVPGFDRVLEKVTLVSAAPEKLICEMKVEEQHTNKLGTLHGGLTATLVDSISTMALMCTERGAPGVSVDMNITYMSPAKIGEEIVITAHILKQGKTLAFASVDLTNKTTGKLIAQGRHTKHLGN

Acot2 = target: T2, Acot2 (Mus musculus, UniProt Q9QYR9); assay: thioesterase activity in liver mitochondria overexpressing Acot2; details: read-out: % inhibition at 10 mM
T2 sequence (Q9QYR9 43-453): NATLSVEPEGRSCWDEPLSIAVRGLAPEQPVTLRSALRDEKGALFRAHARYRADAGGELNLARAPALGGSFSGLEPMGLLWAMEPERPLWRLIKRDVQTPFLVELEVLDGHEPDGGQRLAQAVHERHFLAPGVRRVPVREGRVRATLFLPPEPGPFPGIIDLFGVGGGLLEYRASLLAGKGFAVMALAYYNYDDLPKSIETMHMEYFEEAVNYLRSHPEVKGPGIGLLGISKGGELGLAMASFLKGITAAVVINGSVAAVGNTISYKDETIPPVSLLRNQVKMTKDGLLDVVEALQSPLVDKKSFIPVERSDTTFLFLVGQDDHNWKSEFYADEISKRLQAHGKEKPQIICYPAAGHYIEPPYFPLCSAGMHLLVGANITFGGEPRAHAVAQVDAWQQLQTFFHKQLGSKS

recombinant mouse Acot13 [2] = target: T1, recombinant mouse Acot13; assay: thioesterase activity assay

SMILES | inhibition at 10000 µM (recombinant mouse Acot13 [1]) | inhibition at 10000 µM (Acot2) | pIC50 (recombinant mouse Acot13 [2])
Nc1ncnc2c1ncn2[C@@H]1O[C@H](COP(=O)(O)OP(=O)(O)O)[C@@H](O)[C@H]1O [ADP] | ~20% | ~20% | –
Nc1ncnc2c1ncn2[C@@H]1O[C@H](COP(=O)(O)OP(=O)(O)OP(=O)(O)O)[C@@H](O)[C@H]1O [ATP] | ~20% | ~20% | –
CC(C)(COP(=O)(O)OP(=O)(O)OC[C@H]1O[C@@H](n2cnc3c(N)ncnc32)[C@H](O)[C@@H]1OP(=O)(O)O)[C@@H](O)C(=O)NCCC(=O)NCCS [CoA] | – | – | ~4.46

Reference: doi:10.1101/705327v1 (biorxiv, 2019)
